{
  "source": "paper PMC11434354",
  "about": "“Metabolic and Pharmacokinetic Profiling Studies of N, N-Dimethylaniline-Heliamine in Rats by UHPLC-Q-Orbitrap MS/MS” (Molecules, 2024)",
  "assay": "Metabolite identification of DH in rat plasma, urine, feces and rat liver microsomes by UHPLC-Q-Orbitrap MS/MS",
  "format": "in vivo",
  "settings": "rat plasma",
  "procedure": "For the analysis of DH metabolites, the same UHPLC-MS/MS system was used for the plasma analysis, and the ACQUIT UHPLC BEH C18 column was also utilized. Mobile phase A consisted of 0.1% formic acid in water (v/v), while mobile phase B comprised acetonitrile. The flow rate was maintained at 0.2 mL/min, with a 10 µL injection volume. The column temperature was kept constant at 35 °C, and the RS autosampler temperature was maintained at 10 °C. The gradient elution was as follows: 0–3 min(5%B), 3–11 min (7%B), 11–18 min (7%B), and 18–45 min (30%B). A full MS/dd MS^2 mode in positive heated electrospray ionization (HESI) with 140,000 (for MS) and 17,500 (for MS/MS) resolutions was used for the Q–Exactive Plus Orbitrap MS. The compounds identified in full MS/dd MS^2 mode will be scanned using PRM scanning. The following MS parameters were employed: AGC target, 1 × 10^6; Maximum IT, 100 ms; Spray voltage, 3.2 kV; Capillary temp, 320 °C; S-lens RF level, 55; HCD Energy 20, 40, and 60.\nRat liver microsomes were used for in vitro experiments to study DH metabolism in rats more quickly and easily. After that, the cofactors of phases I and II were added to create the phase I and phase II metabolic systems. The composition of the reagent kit and the procedure can be found in our previous work.\nFor the plasma study, 100 µL of plasma was obtained from rats at 0.5, 1, 2, and 4 h after medicine administration. Then, 300 µL of acetonitrile was added to the above plasma, vortexed for 1 min, and centrifuged for 7 min. The supernatant was collected, and the remaining liquid was dried using nitrogen gas at 40 °C. The blow-dried samples were re-dissolved in 100 µL methanol, sonicated for 1 min, and centrifuged for 7 min.\nUrine was collected during the period spanning from 0 to 48 h following administration, with each period’s combined urine comprising 10 mL and 30 mL of acetonitrile added thereto. After a 10 min interval of sonication, the urine samples were transferred into 1.5 mL centrifuge tubes, vortexed for 1 min, and then centrifuged at a speed of 14,000 rpm for 10 min. Successively, the supernatant was merged and subjected to drying by nitrogen gas at 40 °C. The blow-dried samples were re-dissolved in 100 µL of methanol, sonicated for 1 min, and centrifuged for 7 min.\nFor the fecal study, feces were collected within 0–48 h following administration, dried to powder at room temperature in a shaded area, and combined to yield 8 mL per period, to which 40 mL of acetonitrile was added. Following 30 min of sonication, the samples were transferred to 1.5 mL centrifuge tubes and centrifuged at 14,000 rpm for 10 min. The supernatant was collected and dried with nitrogen at 40 °C before analysis via UHPLC-MS/MS. Before analysis, the blow-dried samples were re-dissolved in 100 µL of methanol, sonicated for 1 min, and centrifuged for 7 min.\nCompound Discovery 3.3 was used for data processing. The MS spectrometric features mainly include retention time, exact mass, peak intensity, and fragment ions. The data processing mainly included selecting spectra, aligning retention times, creating pattern traces, creating fish traces, generating expected compounds, finding expected compounds, grouping expected compounds, fish scoring, and marking background compounds. The mass tolerance is less than 5 ppm.",
  "data": [
    {"smiles": "COc1cc2c(cc1OC)C(c1ccc(N(C)C)cc1)NCC2", "note": "(stereo not shown) [DH, N, N-dimethylaniline-heliamine]", "values": [
      {"measurement": "Rat and LM* (matrices in which DH or the metabolite was detected)", "result": "P*, U*, F*, LM*"}
    ]}
  ]
}
